In patent publication US20240100072A1, “SUBCUTANEOUSLY ADMINISTERED TREATMENTS FOR ADVANCED PARKINSON'S DISEASE” (AbbVie Inc., priority 2021, published 2024):

Columns and labels:
[1] = Metabolism and elimination; settings: in vivo; for half-life: human
Text: Levodopa is mainly eliminated via metabolism by the aromatic amino acid decarboxylase (AAAD) and the catechol-O-methyl-transferase (COMT) enzymes. Other routes of metabolism are transamination and oxidation. The decarboxylation of levodopa to dopamine by AAAD is the major enzymatic pathway when no enzyme inhibitor is co-administered. O-methylation of levodopa by COMT forms 3-O-methyldopa. […] These 2 metabolites are primarily eliminated in the urine unchanged or as glucuronide conjugates.

[2] = test system: plasma proteins; assay: Distribution: erythrocyte/plasma partitioning, plasma protein binding, blood-brain barrier; format: in vitro ADME
Text: Levodopa is transported into the brain by the carrier mechanism for large neutral amino acids.

half-life [1]	unchanged drug as share of the total urinary excretion [1]	blood-brain barrier passage [2]	binding to plasma proteins [2]	partitioning ratio between erythrocytes and plasma [2]	SMILES
~2 h	30%	does not cross the blood-brain barrier	–	–	C[C@@](Cc1ccc(O)c(O)c1)(NN)C(=O)O [carbidopa]
~1.5 h	–	–	< 10%	approximately 1	N[C@@H](Cc1ccc(O)c(O)c1)C(=O)O [levodopa, L-3,4-dihydroxyphenylalanine]
